# In US11970476B1, “6′-(4-chlorophenyl)-2′-alkoxy-3,4′-bipyridine-3′-carbonitriles as antimicrobial compounds” (KING FAISAL UNIVERSITY, priority 2023, dated 2024):
# Experiments:
# Format in all cases: cell-based
# [1] = tested on: Staphylococcus aureus; test: Agar plate disc-diffusion, antibacterial inhibition zone; conditions: DMSO control zone subtracted
# Method: (§1) The agar plate disc-diffusion method was applied. Sterilized filter papers (6 mm in diameter) were wetted with 10 μL of a solution of 6′-(4-chlorophenyl)-2′-ethoxy-3,4′-bipyridine-3′-carbonitrile (4) or 6′-(4-chlorophenyl)-2′-methoxy-3,4′-bipyridine-3′-carbonitrile (5) to be tested, containing […], and the discs were allowed to air dry. The discs were then placed onto the surface of agar plates (nutrient agar for bacteria and Sabouraud's dextrose agar for fungi) seeded with the test organism. Each plate contained 15 mL of the agar medium, previously seeded with 0.2 mL of the broth culture of each organism pregrown for 18 hours. The plates were incubated at 37° C. for 48 hours, and 72 hours for fungi. The inhibition zones were measured in mm. Discs impregnated with DMSO were used as a control, and its inhibition zone was subtracted from the tested compound actual inhibition zone.
# (§2) The results of the antimicrobial testing can be observed in Tables 1 and 2, below, using ciprofloxacin as a reference.
# [2] = tested on: Escherichia coli; test: as above; conditions: DMSO control zone subtracted
# Method: as §1, §2
# [3] = tested on: Bacillus cereus; test: as above; conditions: DMSO control zone subtracted
# Method: as §1, §2
# [4] = tested on: Pseudomonas aeruginosa; test: as above; conditions: DMSO control zone subtracted
# Method: as §1, §2
# [5] = tested on: Chrysosporium keratinophilum; test: Agar plate disc-diffusion, antifungal inhibition zone; conditions: 72 hours, DMSO control zone subtracted
# Method: as §1, §2
# [6] = tested on: Aspergillus flavus; test: as above; conditions: 72 hours, DMSO control zone subtracted
# Method: as §1, §2
# [7] = tested on: different microbes; test: Antimicrobial testing, overall statement on Tables 1 and 2; conditions: summary of Tables 1 and 2, bacteria and fungi
# Method: as §1
# Their antibacterial activity was screened against gram positive bacteria namely Bacillus cereus and Staphylococcus aureus and gram-negative bacterial strains namely Pseudomonas aeruginosa and Escherichia coli, while their antifungal activity was screened against Aspergillus flavus and Chrysosporium keratinophilum.
# [8] = A = concentration of comp. = 10,000 μL
# [9] = B = concentration of comp. = 30,000 μL
# [10] = C = concentration of comp. = 50,000 μL
Compound,"inhibition zone [1, 8] [mm]","inhibition zone [1, 9] [mm]","inhibition zone [1, 10] [mm]","inhibition zone [2, 8] [mm]","inhibition zone [2, 9] [mm]","inhibition zone [2, 10] [mm]","inhibition zone [3, 8] [mm]","inhibition zone [3, 9] [mm]","inhibition zone [3, 10] [mm]","inhibition zone [4, 8] [mm]","inhibition zone [4, 9] [mm]","inhibition zone [4, 10] [mm]","inhibition zone [5, 8] [mm]","inhibition zone [5, 9] [mm]","inhibition zone [5, 10] [mm]","inhibition zone [6, 8] [mm]","inhibition zone [6, 9] [mm]","inhibition zone [6, 10] [mm]",antimicrobial activities (in words) [7]
"O=C(O)c1cn(C2CC2)c2cc(N3CCNCC3)c(F)cc2c1=O [Cip., ciprofloxacin, reference compound]",43,44,53,30,39,60,29,30,42,29,30,53,29,30,53,29,30,42,
"CCOc1nc(-c2ccc(Cl)cc2)cc(-c2cccnc2)c1C#N [Compound 4, 6′-(4-chlorophenyl)-2′-ethoxy-3,4′-bipyridine-3′-carbonitrile]",15,18,31,27,38,52,24,27,39,25,29,39,24,29,42,21,26,37,high antimicrobial activities
"COc1nc(-c2ccc(Cl)cc2)cc(-c2cccnc2)c1C#N [Compound 5, 6′-(4-chlorophenyl)-2′-methoxy-3,4′-bipyridine-3′-carbonitrile]",17,24,30,28,37,53,26,28,39,26,30,42,23,28,41,25,28,40,high antimicrobial activities
